In brackets after ≈: the same amount, converted by molar mass.

The conditions of this data set: buffer; pH 7.4; 200.0 µM.
Turning to `NNC(=O)CCN1CCN(Cc2ccccc2)CC1`, the solubility (kinetic) (commonly solubility judged after dilution from a stock solution rather than from solid) was above 39.4 µg/mL.
In the case of `CCCc1nc(SC)[nH]c(=O)c1C` it was above 29.7 µg/mL; in that of `C=CCC(=O)N1CCCC(C(=O)c2ccc(Cl)cc2)C1` (stereo not drawn), 42.5 µg/mL (≈ 146 µM).
In turn, `Cc1nc(N2CCOCC2)[nH]c(=O)c1[N+](=O)[O-]` returned a kinetic solubility of 33.1 µg/mL (≈ 138 µM).
In turn, `COc1ccc(CCNC(=O)Nc2cccc([N+](=O)[O-])c2)cc1` returned a kinetic solubility of 2.3 µg/mL (≈ 7.29 µM). Compared with the last molecule, the solubility kinetic is about 14-fold lower.
With `Cc1ccc([N+](=O)[O-])cc1NC(=O)CNC1CCCCC1`, the kinetic solubility turned out to be 39 µg/mL (≈ 134 µM).
`O=C(NCCCn1ccnc1)c1ccc(Cl)c(Cl)c1` yielded a kinetic solubility above 44.7 µg/mL.
Take `CS(=O)(=O)N(CC(=O)N1CCN(Cc2ccccc2)CC1)c1cccc(F)c1`: the solubility (kinetic) was found to be 57.9 µg/mL (≈ 143 µM).
In the case of `CCC1Oc2ccccc2N(CC(=O)NC2CCCC2)C1=O` (stereo not drawn) it was 42.2 µg/mL (≈ 140 µM).
Molecule `Cc1ccc(S(=O)(=O)NCc2ccccc2)s1` gave a kinetic solubility above 40.1 µg/mL.
The figure for `Cc1cccc(N2CC(C(=O)O)CC2=O)c1C` (stereo not drawn) is above 35 µg/mL; for `O=C(Nc1ccc(F)c(Cl)c1)c1nsc(Cl)c1Cl` it is 0.7 µg/mL (≈ 2.15 µM).
The figure for `CN(C)c1ccc(C(=O)NCC(c2cccs2)N2CCOCC2)cc1` (stereo not drawn) is 49.3 µg/mL (≈ 137 µM); for `O=C(O)c1cccc(NC(=O)c2ccccc2NC(=O)c2ccco2)c1` it is above 52.5 µg/mL; for `COc1ccccc1C1CCN(C(=O)c2ccccc2)CC1` it is 42.4 µg/mL (≈ 144 µM).
`CCN(Cc1ccc(Cl)s1)C(=O)c1cccc(OCc2c(C)noc2C)c1` yielded a kinetic solubility of 16.4 µg/mL (≈ 40.5 µM).
`CCCCNC(=O)CN1C(=O)NC2(CCOc3ccccc32)C1=O` (stereo not drawn) showed a solubility (kinetic) above 49.7 µg/mL.
On to `Cl.c1ccc2c(N3CCNCC3)cccc2c1`, for which the kinetic solubility was above 37.3 µg/mL.
On to `CCCC1Cc2[nH]c(=O)c(C#N)cc2CO1` (stereo not drawn), for which the kinetic solubility was above 32.7 µg/mL.
The molecule `CCCCS(=O)(=O)N1CCCC(C(=O)Oc2ccc(Cl)cc2)C1` (stereo not drawn) had a solubility (kinetic) below 0.8 µg/mL.
`Cc1ccc2[nH]c(C(F)(F)F)cc(=O)c2c1` displayed a solubility (kinetic) of 33.5 µg/mL (≈ 147 µM).
In the case of `Oc1ccc(C=Nc2ccc3ncccc3c2)c(O)c1` it was 30.5 µg/mL (≈ 115 µM); in that of `O=C(Cc1ccccc1)NC(=S)Nc1ccc(OC(F)F)cc1`, 11.2 µg/mL (≈ 33.3 µM); in that of `Cc1cc(C(=O)Nc2ccccc2C)c2ccccc2n1`, 34.7 µg/mL (≈ 126 µM).
`Fc1ccc2[nH]c3c(Cl)ncnc3c2c1` displayed a kinetic solubility of 7.9 µg/mL (≈ 35.6 µM).
`CC(=O)Nc1c(F)cc(Br)cc1F`: the kinetic solubility was above 37.5 µg/mL.
`Fc1ccc(-c2noc(-c3ccc4c(c3)CCO4)n2)cc1`: the solubility (kinetic) was below 0.3 µg/mL.
As for `O=C(COC(=O)Cc1ccc(Br)cc1)Nc1ccc(Cl)cn1`, the kinetic solubility is 3.9 µg/mL (≈ 10.2 µM).
`CCCc1cc(C(=O)NC(C)C2CCCO2)cs1` (stereo not drawn) showed a solubility (kinetic) above 40.1 µg/mL.
Take `Cc1ccc(NC(=O)c2cc3ccccc3o2)cc1Cl`: the kinetic solubility is below 0.6 µg/mL.
The molecule `Cc1cccc(NC(=O)N2CCCCCC2)c1` displayed a solubility (kinetic) above 34.8 µg/mL.
Turning to `Cc1cc(C)cc(OCC(=O)N2CCc3ccccc3C2)c1`, the solubility (kinetic) was determined as 31.5 µg/mL (≈ 107 µM).
For the molecule `Nc1ccc(C(=O)Nc2ccccc2N)cc1`, the kinetic solubility is above 34.1 µg/mL.
The molecule `O=C(CSc1nc2ccccc2o1)NC1CCCC1` registered a kinetic solubility above 41.5 µg/mL.
The figure for `Cc1nc2ccccn2c1C(=O)NN=C1CCN(C)CC1` is above 42.8 µg/mL.
`CCn1cnc2cc(NCc3ccccc3Cl)ccc21` displayed a kinetic solubility above 42.9 µg/mL.
Consider `CC(=O)c1ccc(S(=O)(=O)N2CCNC(=O)C2)cc1`, for which the kinetic solubility was above 42.3 µg/mL.
On to `CC(=O)NS(=O)(=O)c1ccc(NC(=O)c2ccc3c(c2)NC(=O)CS3)cc1`, for which the kinetic solubility was above 60.8 µg/mL.
In turn, `Cc1sc(N2C(=O)C3C(C2=O)[C@H]2C=C[C@@H]3C2)c(C#N)c1C` (stereo partly drawn) gave a kinetic solubility of 25.6 µg/mL (≈ 85.8 µM).
In the case of `Cc1ccccc1NC(=O)COc1ccccc1C` it was 2.1 µg/mL (≈ 8.23 µM).
Turning to `CCOC(=O)c1c(O)cc(C)cc1Nc1ccccc1`, the solubility (kinetic) was below 0.6 µg/mL.
Consider `Cc1ccc(NC(=O)c2ccc3nc[nH]c3c2)nc1`, for which the solubility (kinetic) was above 37.8 µg/mL.
For the molecule `CN(c1ccccc1)S(=O)(=O)c1ccc2ccccc2c1`, the kinetic solubility is 2.4 µg/mL (≈ 8.07 µM).
For the molecule `COc1cccc(NC(=O)N2C3CCCC2CC(NC(C)=O)C3)c1` (stereo not drawn), the solubility (kinetic) was above 49.7 µg/mL.
In the case of `Cc1cc(C)cc(OC(C)C(=O)NCCCn2ccnc2)c1` (stereo not drawn) it was 33.4 µg/mL (≈ 111 µM); in that of `CCNC(=S)Nc1ccc(OC(F)(F)F)cc1`, above 39.6 µg/mL.
`CCOC(=O)CC(=O)c1[nH]c(C)c(C(=O)OCC)c1C` showed a kinetic solubility of 14.3 µg/mL (≈ 50.8 µM).
The molecule `Oc1ccccc1CNc1nccs1` displayed a solubility (kinetic) above 30.9 µg/mL.
Molecule `Oc1ccc2ccccc2c1CN1CCOCC1` showed a kinetic solubility above 36.5 µg/mL.
As for `CC1(C)CC2CC(C)(CN2C(=O)COC(=O)c2cccc([N+](=O)[O-])c2)C1` (stereo not drawn), the solubility (kinetic) was above 54.1 µg/mL.
In turn, `CCN(C(=O)CN1C(=O)c2ccc([N+](=O)[O-])cc2C1=O)C1CCCCC1` gave a solubility (kinetic) above 53.9 µg/mL.
The figure for `Nc1cncc(C(=O)O)c1` is above 20.7 µg/mL; for `Cc1ccc(/C=C/C(=O)O)cc1S(=O)(=O)NCc1cccnc1` it is 46.9 µg/mL (≈ 141 µM).

Values taken from PubChem BioAssay AID1996.
